# Columns and labels:
# Format in all cases: functional, cell-based
# HT-29 = test: Antiproliferative activity against human HT-29 cells assessed as reduction in cell viability after 48 hrs by SRB assay; conditions: HT-29, 48 h
# OVCAR-5 = test: Antiproliferative activity against human OVCAR5 cells assessed as reduction in cell viability after 48 hrs by SRB assay; conditions: OVCAR-5, 48 h
# TK-10 = test: Antiproliferative activity against human TK10 cells assessed as reduction in cell viability after 48 hrs by SRB assay; conditions: TK-10, 48 h
# RPMI-8226 = test: Antiproliferative activity against human RPMI8226 cells assessed as reduction in cell viability after 48 hrs by SRB assay; conditions: RPMI-8226, 48 h
# OVCAR-3 = test: Antiproliferative activity against human OVCAR3 cells assessed as reduction in cell viability after 48 hrs by SRB assay; conditions: OVCAR-3, 48 h
# MCF7 = test: Antiproliferative activity against human MCF7 cells assessed as reduction in cell viability after 48 hrs by SRB assay; conditions: MCF7, 48 h
# HCC 2998 = test: Antiproliferative activity against human HCC2998 cells assessed as reduction in cell viability after 48 hrs by SRB assay; conditions: HCC 2998, 48 h
# KM12 = test: Antiproliferative activity against human KM12 cells assessed as reduction in cell viability after 48 hrs by SRB assay; conditions: KM12, 48 h
# A498 = test: Antiproliferative activity against human A498 cells assessed as reduction in cell viability after 48 hrs by SRB assay; conditions: A498, 48 h
# COLO 205 = test: Antiproliferative activity against human COLO205 cells assessed as reduction in cell viability after 48 hrs by SRB assay; conditions: COLO 205, 48 h
# SN12C = test: Antiproliferative activity against human SN12C cells assessed as reduction in cell viability after 48 hrs by SRB assay
# SK-OV-3 = test: Antiproliferative activity against human SKOV3 cells assessed as reduction in cell viability after 48 hrs by SRB assay; conditions: SK-OV-3, 48 h
# IGROV-1 = test: Antiproliferative activity against human IGROV1 cells assessed as reduction in cell viability after 48 hrs by SRB assay; conditions: IGROV-1, 48 h
# MDA-MB-231 = test: Antiproliferative activity against human MDA-MB-231 cells assessed as reduction in cell viability after 48 hrs by SRB assay; conditions: MDA-MB-231, 48 h
# CCRF-CEM = test: Antiproliferative activity against human CCRF-CEM cells assessed as reduction in cell viability after 48 hrs by SRB assay
# 786-0 = test: Antiproliferative activity against human 786-0 cells assessed as reduction in cell viability after 48 hrs by SRB assay; conditions: 786-0, 48 h
# HOP-92 = test: Antiproliferative activity against human HOP92 cells assessed as reduction in cell viability after 48 hrs by SRB assay; conditions: HOP-92, 48 h
# SW-620 = test: Antiproliferative activity against human SW620 cells assessed as reduction in cell viability after 48 hrs by SRB assay; conditions: SW-620, 48 h
# T47D = test: Antiproliferative activity against human T47D cells assessed as reduction in cell viability after 48 hrs by SRB assay
# K562 = test: Antiproliferative activity against human K562 cells assessed as reduction in cell viability after 48 hrs by SRB assay; conditions: K562, 48 h
# SF-268 = test: Antiproliferative activity against human SF268 cells assessed as reduction in cell viability after 48 hrs by SRB assay; conditions: SF-268, 48 h
# MDA-MB-468 = test: Antiproliferative activity against human MDA-MB-468 cells assessed as reduction in cell viability after 48 hrs by SRB assay; conditions: MDA-MB-468, 48 h
# DU-145 = test: Antiproliferative activity against human DU145 cells assessed as reduction in cell viability after 48 hrs by SRB assay; conditions: DU-145, 48 h
# Hs-578T = test: Antiproliferative activity against human Hs 578T cells assessed as reduction in cell viability after 48 hrs by SRB assay
# SF-295 = test: Antiproliferative activity against human SF295 cells assessed as reduction in cell viability after 48 hrs by SRB assay; conditions: SF-295, 48 h
# NCI/ADR-RES = test: Antiproliferative activity against human NCI/ADR-RES cells assessed as reduction in cell viability after 48 hrs by SRB assay
# MDA-MB-435 = test: Antiproliferative activity against human MDA-MB-435 cells assessed as reduction in cell viability after 48 hrs by SRB assay; conditions: MDA-MB-435, 48 h
# HCT-116 = test: Antiproliferative activity against human HCT116 cells assessed as reduction in cell viability after 48 hrs by SRB assay; conditions: HCT-116, 48 h
# SR = test: Antiproliferative activity against human SR cells assessed as reduction in cell viability after 48 hrs by SRB assay
# RXF 393 = test: Antiproliferative activity against human RXF393 cells assessed as reduction in cell viability after 48 hrs by SRB assay; conditions: RXF 393, 48 h
# UO-31 = test: Antiproliferative activity against human UO31 cells assessed as reduction in cell viability after 48 hrs by SRB assay; conditions: UO-31, 48 h
# UACC-62 = test: Antiproliferative activity against human UACC62 cells assessed as reduction in cell viability after 48 hrs by SRB assay; conditions: UACC-62, 48 h, pooled result: one value given for 8 cell lines, strains, targets or settings
# OVCAR-8 = test: Antiproliferative activity against human OVCAR8 cells assessed as reduction in cell viability after 48 hrs by SRB assay; conditions: OVCAR-8, 48 h
# NCI-H522 = test: Antiproliferative activity against human NCI-H522 cells assessed as reduction in cell viability after 48 hrs by SRB assay; conditions: NCI-H522, 48 h, pooled result: one value given for 8 cell lines, strains, targets or settings
# U-251 = test: Antiproliferative activity against human U251 cells assessed as reduction in cell viability after 48 hrs by SRB assay; conditions: U-251, 48 h
# PC-3 = test: Antiproliferative activity against human PC3 cells assessed as reduction in cell viability after 48 hrs by SRB assay; conditions: PC-3, 48 h
# HCT-15 = test: Antiproliferative activity against human HCT15 cells assessed as reduction in cell viability after 48 hrs by SRB assay; conditions: HCT-15, 48 h
# BT-549 = test: Antiproliferative activity against human BT549 cells assessed as reduction in cell viability after 48 hrs by SRB assay; conditions: BT-549, 48 h
# MOLT-4 = test: Antiproliferative activity against human MOLT4 cells assessed as reduction in cell viability after 48 hrs by SRB assay; conditions: MOLT-4, 48 h
# OVCAR-4 = test: Antiproliferative activity against human OVCAR4 cells assessed as reduction in cell viability after 48 hrs by SRB assay; conditions: OVCAR-4, 48 h
# SNB-75 = test: Antiproliferative activity against human SNB75 cells assessed as reduction in cell viability after 48 hrs by SRB assay; conditions: SNB-75, 48 h
# SF-539 = test: Antiproliferative activity against human SF539 cells assessed as reduction in cell viability after 48 hrs by SRB assay; conditions: SF-539, 48 h
# SNB-19 = test: Antiproliferative activity against human SNB19 cells assessed as reduction in cell viability after 48 hrs by SRB assay; conditions: SNB-19, 48 h
# ACHN = test: Antiproliferative activity against human ACHN cells assessed as reduction in cell viability after 48 hrs by SRB assay
# CAKI-1 = test: Antiproliferative activity against human CAKI-1 cells assessed as reduction in cell viability after 48 hrs by SRB assay; conditions: CAKI-1, 48 h
# HL-60(TB) = test: Antiproliferative activity against human HL-60(TB) cells assessed as reduction in cell viability after 48 hrs by SRB assay; conditions: HL-60, 48 h
compound,measurement,setting,value
C/C=C(\C)C(=O)O[C@H]1C=CC(=O)O[C@H]1COC(=O)[C@H](C)O,IC50,HT-29,11 µM
same,IC50,OVCAR-5,16 µM
same,IC50,TK-10,15 µM
same,IC50,RPMI-8226,2 to 49 µM
same,IC50,OVCAR-3,16 µM
same,IC50,MCF7,12 µM
same,IC50,HCC 2998,11 µM
same,IC50,KM12,11 µM
same,IC50,A498,15 µM
same,IC50,COLO 205,11 µM
same,IC50,SN12C,15 µM
same,IC50,SK-OV-3,16 µM
same,IC50,IGROV-1,16 µM
same,IC50,MDA-MB-231,12 µM
same,IC50,CCRF-CEM,2 to 49 µM
same,IC50,786-0,15 µM
same,IC50,HOP-92,2 to 49 µM
same,IC50,SW-620,11 µM
same,IC50,T47D,12 µM
same,IC50,K562,2 to 49 µM
same,IC50,SF-268,16 µM
same,IC50,MDA-MB-468,2 to 49 µM
same,IC50,DU-145,16 µM
same,IC50,Hs-578T,12 µM
same,IC50,SF-295,16 µM
same,IC50,NCI/ADR-RES,12 µM
same,IC50,MDA-MB-435,12 µM
same,IC50,HCT-116,11 µM
same,IC50,SR,2 to 49 µM
same,IC50,RXF 393,15 µM
same,IC50,UO-31,15 µM
same,IC50,UACC-62,13 µM
same,IC50,OVCAR-8,16 µM
same,IC50,NCI-H522,19 µM
same,IC50,U-251,16 µM
same,IC50,PC-3,16 µM
same,IC50,HCT-15,11 µM
same,IC50,BT-549,2 to 49 µM
same,IC50,MOLT-4,2 to 49 µM
same,IC50,OVCAR-4,16 µM
same,IC50,SNB-75,16 µM
same,IC50,SF-539,16 µM
same,IC50,SNB-19,16 µM
same,IC50,ACHN,15 µM
same,IC50,CAKI-1,15 µM
same,IC50,HL-60(TB),2 to 49 µM
"C/C=C(\C)C(=O)O[C@H]1C=CC(=O)O[C@H]1CC[C@H](O)[C@H](C)O [6,7-DIHYDROPHOMOPSOLIDE B]",IC50,HT-29,2 to 49 µM
same,IC50,OVCAR-5,18 µM
same,IC50,TK-10,2 to 49 µM
same,IC50,RPMI-8226,2 to 49 µM
same,IC50,OVCAR-3,18 µM
same,IC50,MCF7,11 µM
same,IC50,HCC 2998,2 to 49 µM
same,IC50,KM12,2 to 49 µM
same,IC50,A498,2 to 49 µM
same,IC50,COLO 205,2 to 49 µM
same,IC50,SN12C,2 to 49 µM
same,IC50,SK-OV-3,18 µM
same,IC50,IGROV-1,18 µM
same,IC50,MDA-MB-231,11 µM
same,IC50,CCRF-CEM,2 to 49 µM
same,IC50,786-0,2 to 49 µM
same,IC50,HOP-92,2 to 49 µM
same,IC50,SW-620,2 to 49 µM
same,IC50,T47D,11 µM
same,IC50,K562,2 to 49 µM
same,IC50,SF-268,17 µM
same,IC50,MDA-MB-468,2 to 49 µM
same,IC50,DU-145,18 µM
same,IC50,Hs-578T,11 µM
same,IC50,SF-295,17 µM
same,IC50,NCI/ADR-RES,11 µM
same,IC50,MDA-MB-435,11 µM
same,IC50,HCT-116,2 to 49 µM
same,IC50,SR,2 to 49 µM
same,IC50,RXF 393,2 to 49 µM
same,IC50,UO-31,2 to 49 µM
same,IC50,UACC-62,2 to 49 µM
same,IC50,OVCAR-8,18 µM
same,IC50,NCI-H522,18 µM
same,IC50,U-251,17 µM
same,IC50,PC-3,18 µM
same,IC50,HCT-15,2 to 49 µM
same,IC50,BT-549,2 to 49 µM
same,IC50,MOLT-4,2 to 49 µM
same,IC50,OVCAR-4,18 µM
same,IC50,SNB-75,17 µM
same,IC50,SF-539,17 µM
same,IC50,SNB-19,17 µM
same,IC50,ACHN,2 to 49 µM
same,IC50,CAKI-1,2 to 49 µM
same,IC50,HL-60(TB),2 to 49 µM

# — ChEMBL document CHEMBL4373641, “Synthesis and direct comparison of the anticancer activities of phomopsolides D and E and two 7-oxa-/7-aza-analogues” (Medchemcomm, 2019)
